# According to patent US20250326742A1, “THERAPEUTIC COMPOUNDS” (RUTGERS, THE STATE UNIVERSITY OF NEW JERSEY, priority 2024, published 2025):
# How the values were obtained:
# [1] = Cytotoxicity assay in Vero E6 cells (neutral red uptake); assay type: cell-based; settings: African green monkey, 2 days at 37° C.
# Description: Cytotoxicity Assay in Vero E6 Cells
# Briefly, 80,000 cells/ml of the tested cell lines were dispensed into 96-well cell culture plates at 100 μl per well. Twenty-four hours later, the growth medium was removed and washed with 150 μl of PBS buffer. Two hundred microliters of fresh serum-free medium containing serial diluted compounds was added to each well. After incubating for 2 days at 37° C., the medium was removed and replaced with 100 μl of DMEM medium containing neutral red (40 μg/ml) and incubated for 2 to 4 hours at 37° C. The amount of neutral red taken up was determined by measuring the absorbance at 540 nm using a Multiskan FC Microplate Photometer (Thermo Fisher Scientific). The CC50 values were calculated from best-fit dose-response curves with variable slope in Prism 8.
# [2] = target: SARS-CoV-2 PLpro (Severe acute respiratory syndrome coronavirus 2, UniProt P0DTD1); assay: biochemical; settings: 200 nM PLpro, 10 μM FRET substrate, 30 min preincubation at 30° C.
# Description: FRET-Based PL^pro Enzymatic Assay
# The SARS-CoV-2 PL^pro enzymatic assays were carried out as follows: The assay was assembled in 96-well plates with 100 μl of 200 nM PL^Pro protein in PL^Pro reaction buffer [50 mM Hepes (pH 7.5), 0.01% Triton X-100, and 5 mM DTT]. Then, 1 μl of testing compound at various concentrations was added to each well and incubated at 30° C. for 30 minutes. The enzymatic reaction was initiated by adding 1 μl of 1 mM FRET substrate (the final substrate concentration is 10 μM). The reaction was monitored in a Cytation 5 image reader with filters for excitation at 360/40 nm and emission at 460/40 nm at 30° C. for 1 hour. The initial velocity of the enzymatic reaction with and without testing compounds was calculated by linear regression for the first 15 minutes of the kinetic progress curve. The ICso values were calculated by plotting the initial velocity against various concentrations of testing compounds with a dose-response function in Prism 8 software.
Compound,CC50 at 2 days [1],IC50 [2]
"CCn1ccc(-c2cc(-c3cnn(C)c3)cc([C@@H](C)NC(=O)c3ccccc3CCC(=O)NNC(=O)/C=C/C(=O)N3CC(C)(C)C3)c2)n1 [Example 8, (R,E)-2-(3-(2-(4-(3,3-Dimethylazetidin-1-yl)-4-oxobut-2-enoyl)hydrazineyl)-3-oxopropyl)-N-(1-(3-(1-ethyl-1H-pyrazol-3-yl)-5-(1-methyl-1H-pyrazol-4-yl)phenyl)ethyl)benzamide]",> 250 µM,
"CCn1ccc(-c2cc(-c3cnn(C)c3)cc([C@@H](C)NC(=O)c3ccccc3CNC(=O)CNC(=O)/C=C/C(=O)N3CC(F)(F)C3)c2)n1 [Example 25, (R,E)-2-((2-(4-(3,3-difluoroazetidin-1-yl)-4-oxobut-2-enamido)acetamido)methyl)-N-(1-(3-(1-ethyl-1H-pyrazol-3-yl)-5-(1-methyl-1H-pyrazol-4-yl)phenyl)ethyl)benzamide]",> 500 µM,< 1 µM
"CCn1ccc(-c2cc(-c3cnn(C)c3)cc(C3(NC(=O)c4ccccc4CNC(=O)CNC(=O)/C=C/C(=O)N4CC(F)(F)C4)CC3)c2)n1 [Example 24, (E)-2-((2-(4-(3,3-difluoroazetidin-1-yl)-4-oxobut-2-enamido)-acetamido)methyl)-N-(1-(3-(1-ethyl-1H-pyrazol-3-yl)-5-(1-methyl-1H-pyrazol-4-yl)phenyl)cyclopropyl)benzamide]",> 500 µM,1 to 5 µM
"CCn1ccc(-c2cc(-c3cnn(C)c3)cc([C@@H](C)NC(=O)c3ccccc3CCC(=O)NNC(=O)/C=C/C(=O)N3CCC3)c2)n1 [Example 22, (R,E)-2-(3-(2-(4-(azetidin-1-yl)-4-oxobut-2-enoyl) hydrazineyl)-3-oxopropyl)-N-(1-(3-(1-ethyl-1H-pyrazol-3-yl)-5-(1-methyl-1H-pyrazol-4-yl)phenyl)ethyl)benzamide]",> 250 µM,< 1 µM
"CCn1ccc(-c2cc(-c3cnn(C)c3)cc([C@@H](C)NC(=O)c3ccccc3CCC(=O)NNC(=O)/C=C/CN(C)C)c2)n1 [Example 5, (R,E)-2-(3-(2-(4-(Dimethylamino)but-2-enoyl)hydrazineyl)-3-oxopropyl)-N-(1-(3-(1-ethyl-1H-pyrazol-3-yl)-5-(1-methyl-1H-pyrazol-4-yl)phenyl)ethyl)benzamide]",> 500 µM,> 5 µM
"CCOC(=O)/C=C/C(=O)NCC(=O)NCc1ccccc1C(=O)NC1(c2cc(-c3cnn(C)c3)cc(-c3ccn(CC)n3)c2)CC1 [Example 23, ethyl (E)-4-((2-((2-((1-(3-(1-ethyl-1H-pyrazol-3-yl)-5-(1-methyl-1H-pyrazol-4-yl)phenyl)cyclopropyl)carbamoyl)benzyl)amino)-2-oxoethyl)amino)-4-oxobut-2-enoate]",> 500 µM,1 to 5 µM
"CCn1ccc(-c2cc(-c3cnn(C)c3)cc([C@@H](C)NC(=O)c3ccccc3CCC(=O)NNC(=O)/C=C/C(=O)N3CC(C(F)(F)F)C3)c2)n1 [Example 18, (R,E)-N-(1-(3-(1-Ethyl-1H-pyrazol-3-yl)-5-(1-methyl-1H-pyrazol-4-yl)phenyl)ethyl)-2-(3-oxo-3-(2-(4-oxo-4-(3-(trifluoromethyl)azetidin-1-yl)but-2-enoyl)hydrazineyl)propyl)benzamide]",,< 1 µM
"CCOC(=O)/C=C/C(=O)NNC(=O)CCc1ccccc1C(=O)N[C@H](C)c1cc(-c2cnn(C)c2)cc(-c2ccn(CC)n2)c1 [Example 9, Ethyl (R,E)-4-(2-(3-(2-((1-(3-(1-ethyl-1H-pyrazol-3-yl)-5-(1-methyl-1H-pyrazol-4-yl)phenyl)ethyl)carbamoyl)phenyl)propanoyl)hydrazineyl)-4-oxobut-2-enoate]",,< 1 µM
"CCn1ccc(-c2cc(-c3cnn(C)c3)cc([C@@H](C)NC(=O)c3ccccc3CCC(=O)NNC(=O)/C=C/C(=O)OC(C)(C)C)c2)n1 [Example 7, tert-Butyl (R,E)-4-(2-(3-(2-((1-(3-(1-ethyl-1H-pyrazol-3-yl)-5-(1-methyl-1H-pyrazol-4-yl)phenyl)ethyl)carbamoyl)phenyl)propanoyl)hydrazineyl)-4-oxobut-2-enoate]",,< 1 µM
